From patent US12534436B2, “Disubstituted adamantyl derivative or pharmaceutically acceptable salt thereof, and pharmaceutical composition for suppressing cancer growth comprising same as active ingredient” (ONECUREGEN CO., LTD., priority 2020, dated 2026)

Assays:
[1] = system: mitochondrial ETC complex I; experiment: Mitochondrial respiration assay, complex I (malate/pyruvate); assay type: cell-based, human; conditions: HepG2 cells, 100 μM LW1564 (FIG. 4B)
Description: Compounds that suppress mitochondrial respiration promote degradation of HIF-1α by increasing cellular oxygen content. Accordingly, it was investigated whether LW1564 (compound 21-3) affected mitochondrial respiration by measuring the oxygen consumption rate (OCR). Oxygen consumption was measured using an Oxytherm Clark-type electrode system (Hansatech, Norfolk, UK) (Chou, T. C. Theoretical basis, experimental design, and computerized simulation of synergism and antagonism in drug combination studies. Pharmacol. Rev. 58, 621-681 (2006)). HepG2 cells (2×10^7) were cultured with 2 μM LW1564 (compound 21-3) for 6 hours, collected, and then OCR was measured at 37° C. for 5 minutes with a thermoregulated controlled circulating system. For […] studies, digitonin-permeabilised HepG2 cells (2×10^7) were read on a detection device containing 2 ml of respiratory buffer (0.25 M sucrose, 2 mM KH2PO4, 5 mM MgCl2, 1 mM EDTA, 1 mM ADP, 20 mM MOPS, pH 7.4). The following substrates, which provide electrons to the components in the ETC, were then added: 5 mM sodium pyruvate, 5 mM sodium malate, 5 mM sodium succinate, 5 mM L-ascorbic acid and 0.2 mM N,N,N,N-tetra methyl-p-phenylenediamine (TMPD). Complex I, III and IV inhibitors (rotenone, antimycin A and KCN, respectively) were added to a final concentration of 1 μM. […]

[2] = system: HIF-1 (HRE-dependent luciferase reporter); experiment: HRE-luciferase assay, screening of HIF-1 inhibitors in HCT116 cells; assay type: cell-based, human; conditions: Homo sapiens, HCT-116; HCT116 cells stably expressing HRE-dependent luciferase reporter, hypoxic conditions, 12 hours; means of three experiments
Description: HCT116 cells stably expressing the HRE-dependent luciferase reporter were treated with the disubstituted adamantyl derivative prepared in the above example under hypoxic conditions for 12 hours before measuring luciferase activity.
In HCT116 cells treated with disubstituted adamantyl derivatives, luciferase activity was investigated using HRE-luciferase assay. The HRE-luciferase reporter assay was performed as previously described using the luciferase assay system (Promega, Madison, WI, USA) according to the manufacturer's instructions (Naik, R. et al. Synthesis and Structure-Activity Relationship of (E)Phenoxyacrylic Amide Derivatives as Hypoxia-Inducible Factor (HIF) 1α Inhibitors. J. Med. Chem. 55, 10564-1057 (2012)). Luciferase activity was measured using a Victor X light luminescence reader (PerkinElmer, Boston, MA, USA).

[3] = system: lipid synthesis; experiment: Nile red staining of lipid accumulation in HepG2 cells; assay type: cell-based, human; conditions: 24 hours (FIG. 5B)
Description: In order to explore this possibility, the effect of LW1564 (compounds 21-3) on lipid synthesis using Nile red, a fluorescent probe that binds to hydrophobic molecules such as lipid droplets was evaluated. Nile red staining was performed as described in “1. Huang, D. et al. HIF-1-mediated suppression of acyl-CoA dehydrogenases and fatty acid oxidation is critical for cancer progression. Cell Rep. 8, 1930-1942 (2014).” HepG2 cells were treated with LW1564 (compound 21-3) for 24 hours and then stained with 200 nM Nile Red and 1 μM Calcein AM for 10 minutes. Data were collected and analyzed with an IncuCyte ZOOM® system (Essen BioScience). For normalization, cell viability was measured using a cell-permeant fluorescent dye, Calcein AM.

[4] = system: HepG2 and A549 cells; experiment: Cell proliferation by live cell imaging system IncuCyte ZOOM; assay type: cell-based, human; conditions: IncuCyte ZOOM (FIG. 1C)
[5] = system: CCD-34Lu normal lung fibroblasts; experiment: Cell viability by methylene blue colorimetric assay, normal cells CCD-34Lu; assay type: cell-based; conditions: Homo sapiens, Fibroblast; methylene blue assay (FIG. 1B); read-out: GI50, growth of normal cells CCD-34Lu
Description: Among the newly synthesized adamantyl compounds, it was evaluated how compound 21c (LW1564, Compound 21-3), FIG. 1A) affected proliferation suppression of various cancer cells. Human breast cancer cells (MCF7), human cervical cancer cells (HeLa), human colorectal cancer cells (HCT116, HCT15, LoVo, SW480, SW620 and WiDr), human fibrosarcoma cells (HT1080), human gastric cancer cells (NCI-N87, NUGC3 and SNU484), human liver cancer cells (HepG2, HT17, Huh7, SHJ1 and SK-Hep1), human lung cancer cells (A549 and H1299), human pancreatic cancer cells (AsPC1 and MIA-PaCa2) and normal lung fibroblasts (CCD-34Lu and WI-38) were purchased from the American Type Culture Collection (Manassas, Virginia, USA) or KRIBB Cell Line Bank (Daejeon). For cell culture, cells were cultured in a DMEM medium (Gibco, Grand Island, New York, USA) supplemented with 5% (v/v) fetal bovine serum (WelGENE, Daegu, Korea) and 100 U/ml penicillin and 100 μg/ml streptomycin (Gibco). Cells were maintained at 37° C. in a humidified incubator with 5% CO2, and hypoxia and a multi-gas incubator (Sanyo, Osaka, Japan) was adjusted to 1% O2, 94% N2 and 5% CO2. Cell viability was determined by methylene blue colorimetric assay as described in the “Chou, T. C. […] The dye was eluted with 0.1% HCl (v/v) and quantified at 600 nm on a Molecular Devices EMax (Molecular Devices, CA, USA). […]

[6] = system: HIF-1α; experiment: Western blot of HIF-1α accumulation in HepG2 cells; assay type: cell-based, human
[7] = system: AMPK signaling; experiment: Western blot of AMPK/mTOR signaling in HepG2 cells; assay type: cell-based, human

COc1cc2c(cc1OC)CN(C(=O)C13CC4CC(C1)CC(c1ccc(OCC(=O)N5CCN(Cc6ccc(C(F)(F)F)cc6)CC5)cc1)(C4)C3)CC2 [Compound 21c, 2-(4-(3-(6,7-Dimethoxy-1,2,3,4-tetrahydroisoquinoline-2-carbonyl)adamantan-1-yl)phenoxy)-1-(4-(4-(trifluoromethyl)benzyl)piperazin-1-yl) ethanone]
oxygen consumption by complex I [1]: reduced oxygen consumption by complex I | IC50 [2]: 1100 nM | lipid accumulation (Nile red) [3]: reduced lipid accumulation in a concentration-dependent manner | proliferation inhibition, live cell imaging [4]: induced proliferation inhibition of HepG2 and A549 cells in a dose-dependent manner | GI50 [5]: > 20000 nM | HIF-1α protein amount in the presence of cobalt chloride ([6]; Western blot, cobalt chloride (FIG. 2B)): did not affect HIF-la protein amount | accumulation of HIF-1α ([6]; hypoxic conditions (FIG. 2B)): suppressed the accumulation of HIF-1α in a concentration-dependent manner | phosphorylation of mTOR ([7]; concentration-dependent (FIG. 5A)): suppressed phosphorylation of mTOR | phosphorylation of AMPK and ACC ([7]; western blot (FIG. 5A)): promoted phosphorylation of AMPK and its downstream protein, Acetyl-CoA carboxylase (ACC)
